The molecules below were run on isolation-induced fighting in mice (assay: Isolated fighting mouse (IFM) test / isolated mouse aggression). Settings: Mus musculus, ip; 30 mg/kg intraperitoneally; at least 40% protected = active.
Assay type: in vivo
Procedure: *IFM - Isolated fighting mouse test at a dose of 30 mg/kg
intraperitoneally; those compounds which protected at least 40% of the
Two models of aggression are used in the primary screening for neuroleptics, (1) isolation-induced fighting in mice (IFM), and (2) aggression induced in rats by destruction of the septal area (septal rat). Compounds are first submitted, however, to the neuropharmacological profile, a standard procedure (see, e.g., Samuel Irwin, Science, 136, 123 [1962]) employed in screening a compound to determine its usefulness as a central nervous system active compound. Those agents which cause depression over a wide dose range are then submitted to the first anti-aggression screen, the isolation-induced fighting mouse assay.
The compound of Example 6 was compared with chlorpromazine and chlordiazepoxide for its anti-aggressive activity. Three models of experimentally-induced aggression in rodents were studied (R. D. Sofia, Life Science, 8: 705, 1969).

Question: Which responders at 30 mg/kg does the source give for `NC(=O)c1ccccc1N=NNc1ccccc1C(N)=O` [Example 1, 2,2'-diazoaminobenzamide] here?
Answer: 100%

Question: `NC(=O)c1ccccc1N=NNc1nccs1` [Example 2, 2-[3-(2-thiazolyl)-2(or 1)-triazeno]-benzamide] was tested. Which responders at 30 mg/kg did it give?
Answer: 80%

Question: With `CCn1c2ccccc2c2cc(NN=Nc3ccccc3C(N)=O)ccc21` [Example 4, 2-[3-(9-ethyl-3-carbazolyl)-2(or 1)-triazeno]-benzamide] as the molecule, how does the responders at 30 mg/kg read?
Answer: 100%

Question: How did the responders at 30 mg/kg turn out when `Cc1nc(NN=Nc2ccccc2C(N)=O)sc1C(=O)N1CCOCC1` [Example 5, 2-[3-(4-methyl-5-morpholinocarbonyl-2-thiazolyl)-2(or 1)-triazeno]-benzamide] was run?
Answer: 100%

Question: Which responders at 30 mg/kg does the source give for `Cc1ccc(NN=Nc2ccccc2C(N)=O)cc1` [Example 8, 2-[3-p-tolyl-1(or 2)-triazeno]-benzamide] here?
Answer: 100%

Question: With `Cc1cc(C)c(NC(=O)c2sc(NN=Nc3ccccc3C(N)=O)nc2C)c(C)c1` [Example 9] as the molecule, how does the responders at 30 mg/kg read?
Answer: 60%

Question: How did the responders at 30 mg/kg turn out when `COC(=O)c1ccccc1NN=Nc1ccccc1C(N)=O` [Example 10] was run?
Answer: 80%

Question: How did the responders at 30 mg/kg turn out when `NC(=O)c1ccccc1N=NNc1ccc(Cl)cc1` [Example 11] was run?
Answer: 40%

Question: `NC(=O)c1ccccc1N=NNc1ccc([N+](=O)[O-])cc1` [Example 12] was tested. Which responders at 30 mg/kg did it give?
Answer: 100%

Question: With `Cc1ccccc1NN=Nc1ccccc1C(N)=O` [Example 13] as the molecule, how does the responders at 30 mg/kg read?
Answer: 100%

Question: Which responders at 30 mg/kg does the source give for `Cc1cccc(NN=Nc2ccccc2C(N)=O)c1` [Example 14] here?
Answer: 80%

Question: Which responders at 30 mg/kg does the source give for `NC(=O)c1ccccc1N=NNc1cccc([N+](=O)[O-])c1` [Example 15] here?
Answer: 100%

Question: How did the responders at 30 mg/kg turn out when `Cc1ccc(NN=Nc2ccccc2C(N)=O)cc1C` [Example 16] was run?
Answer: 60%

Question: For `Cc1nc(NN=Nc2ccccc2C(N)=O)sc1C(=O)Nc1ccccc1Cl` [Example 17], which responders at 30 mg/kg is on record?
Answer: 60%

Question: For `Cc1nc(NN=Nc2ccccc2C(N)=O)sc1C(=O)Nc1ccccc1` [Example 18], which responders at 30 mg/kg is on record?
Answer: 60%

Question: How did the responders at 30 mg/kg turn out when `NC(=O)c1ccccc1N=NNc1cccnc1` [Example 19] was run?
Answer: 80%

Question: For `NC(=O)c1ccccc1N=NNc1ccc2ncccc2c1` [Example 20], which responders at 30 mg/kg is on record?
Answer: 40%

Question: Which responders at 30 mg/kg does the source give for `NC(=O)c1ccccc1N=NNc1cccnc1Cl` [Example 21] here?
Answer: 40%

Question: Which responders at 30 mg/kg does the source give for `COc1ccc(NN=Nc2ccccc2C(N)=O)cn1` [Example 22] here?
Answer: 100%

Question: Which responders at 30 mg/kg does the source give for `NC(=O)c1ccccc1N=NNc1cccc2c1C(=O)c1ccccc1C2=O` [Example 23] here?
Answer: 40%

Question: With `COc1ccc(NN=Nc2ccccc2C(N)=O)cc1` [Example 24] as the molecule, how does the responders at 30 mg/kg read?
Answer: 100%

Question: `COc1ccccc1NN=Nc1ccccc1C(N)=O` [Example 25] was tested. Which responders at 30 mg/kg did it give?
Answer: 60%

Question: For `CNC(=O)c1ccccc1N=NNc1ccc(C)cc1` [Example 26], which responders at 30 mg/kg is on record?
Answer: 100%

Question: `CNC(=O)c1ccccc1N=NNc1ccc(C)c(Cl)c1` [Example 27] was tested. Which responders at 30 mg/kg did it give?
Answer: 80%

Question: For `CCCCNC(=O)c1ccccc1N=NNc1ccc(C)c(Cl)c1` [Example 28], which responders at 30 mg/kg is on record?
Answer: 60%

Question: Which responders at 30 mg/kg does the source give for `CNC(=O)c1ccccc1N=NNc1nc(C)c(C(=O)NCc2ccccc2)s1` [Example 29] here?
Answer: 100%

Question: `Cc1nc(NN=Nc2ccccc2C(=O)N(C)C)sc1C(=O)NCc1ccccc1` [Example 31] was tested. Which responders at 30 mg/kg did it give?
Answer: 60%

Question: `Cc1ccc(NN=Nc2ccccc2C(=O)Nc2ccccc2)cc1` [Example 32] was tested. Which responders at 30 mg/kg did it give?
Answer: 60%

Question: `COc1ccc([N+](=O)[O-])cc1NN=Nc1ccccc1C(N)=O` [Example 33] was tested. Which responders at 30 mg/kg did it give?
Answer: 100%

Question: Which responders at 30 mg/kg does the source give for `COc1cc([N+](=O)[O-])c(C)cc1NN=Nc1ccccc1C(N)=O` [Example 34] here?
Answer: 100%

Question: With `NC(=O)c1ccccc1N=NNc1ccccc1Cl` [Example 35] as the molecule, how does the responders at 30 mg/kg read?
Answer: 80%

Question: How did the responders at 30 mg/kg turn out when `NC(=O)c1ccccc1N=NNc1cccc(Cl)c1` [Example 36] was run?
Answer: 40%

Question: Which responders at 30 mg/kg does the source give for `COc1ccc(Cl)cc1NN=Nc1ccccc1C(N)=O` [Example 37] here?
Answer: 60%

Question: How did the responders at 30 mg/kg turn out when `CCOc1ccc(NN=Nc2ccccc2C(N)=O)cc1` [Example 38] was run?
Answer: 40%

Same assay, conditions: Mus musculus, ip; i.p. administration; read-out: ED50 (IFM)

Question: With `NC(=O)c1ccccc1N=NNc1nccs1` [Example 2, 2-[3-(2-thiazolyl)-2(or 1)-triazeno]-benzamide] as the molecule, how does the ED50 read?
Answer: 9.4 mg/kg

Question: `Cc1nc(NN=Nc2ccccc2C(N)=O)sc1C(=O)N1CCOCC1` [Example 5, 2-[3-(4-methyl-5-morpholinocarbonyl-2-thiazolyl)-2(or 1)-triazeno]-benzamide] was tested. Which ED50 did it give?
Answer: 6.7 mg/kg

Question: Which ED50 does the source give for `COC(=O)c1ccccc1NN=Nc1ccccc1C(N)=O` [Example 10] here?
Answer: 6 mg/kg

Question: `COc1ccc([N+](=O)[O-])cc1NN=Nc1ccccc1C(N)=O` [Example 33] was tested. Which ED50 did it give?
Answer: 14 mg/kg

Question: With `COc1cc([N+](=O)[O-])c(C)cc1NN=Nc1ccccc1C(N)=O` [Example 34] as the molecule, how does the ED50 read?
Answer: 14.5 mg/kg

Question: For `NC(=O)c1ccccc1N=NNc1ccccc1Cl` [Example 35], which ED50 is on record?
Answer: 5.2 mg/kg

Source: patent US3932633A, “Novel o-triazenobenzamides, in treating aggressive behavior” (Uniroyal Inc., priority 1974, dated 1976)
